# Reference: patent US4221787A, “Esteramide prodrugs of anti-inflammatory corticosteroids” (INTERx Research Corporation, priority 1979, dated 1980)
# Columns and labels:
# thymus glands = experiment: Effect of selected steroid derivatives on thymus weight (systemic effect); format: in vivo, Sprague-Dawley rats; conditions: 48 hours after burn and application of 0.03 M steroid in isopropyl myristate; lower weight = more pronounced systemic effect; Control 233.5 ± 11.5
# Experimental: A modification of the method of Tonelli et al, Endocrinology, 77, 625 (1965), was used. […] The rats were first anesthetized with phenobarbitol, then the right ear of each rat was burned on both side for 10 seconds between two vertically oriented brass cylinders heated with water at 51.7° C. from a constant temperature bath. The pressure of the cylinder on the rat ear was reproduced by using only the weight of the top brass cylinder (2.5 lbs) to apply the pressure. The burned rat ear was then immediately treated on both sides with […] of vehicle (isopropyl myristate) or 0.03 M steroid in the vehicle. After 16 hours, both ears of the rat were removed along anatomical guidelines and weighed.
# Effect of Selected Steroid Derivatives on Thymus Weight
# The rats used in the ear burn test described in Example 18 were revived and 48 hours after the burn and application of the steroid, they were sacrificed with carbon dioxide. Then their thymus glands were removed and weighed. The lower the weight of thymus, the more pronounced the systemic effect of the steroid.
# burned rat ear = experiment: Effect of selected steroid derivatives on ear burn inflammation; format: in vivo, Sprague-Dawley rats; conditions: 0.03 M steroid in isopropyl myristate, rat ear burned at 51.7° C. for 10 seconds, ears weighed after 16 hours, 5 rats
# Experimental: The pressure of the cylinder on the rat ear was reproduced by using only the weight of the top brass cylinder (2.5 lbs) to apply the pressure. The burned rat ear was then immediately treated on both sides with […] of vehicle (isopropyl myristate) or 0.03 M steroid in the vehicle. After 16 hours, both ears of the rat were removed along anatomical guidelines and weighed.
# The increase of weight caused by the burn was determined by subtracting the weight of the untreated left ear from the weight of the treated right ear.
# The percent inhibition of inflammation was then determined as the weight increase of burned rat ears treated only with vehicle minus the weight increase of burned rat ears treated with vehicle containing the steroid divided by the weight increase of burned rat ears treated only with vehicle times one hundred.
# mouse skin = conditions: in vivo
# Experimental: Effect of Selected Steroid Derivatives on Skin Thickness A modification of the method of Smith et al, Arch Derrmatol, 112, 1115 (1976), was used. Hairless mice were used instead of rats. The steroids were tested at 0.03 M in propyleneglycol suspension except for hydrocortisone 17-butyrate which was soluble. Each suspension (50 μl) was applied to the backs of 9 mice daily. On the twenty-ninth day of the experiment, the mice were sacrificed with carbon dioxide and the double fold skin thickness was immediately measured using an Ames micrometer accurate to 0.0001 inch at a pressure of 28 lb/cm^2. The measurement was taken after three minutes had elapsed from the time the mouse skin was placed in the micrometer.
Compound,Thymus Weight (thymus glands) [mg],% Inhibition (of ear burn inflammation) (burned rat ear) [%],% Decrease from Control (double fold skin thickness) (mouse skin) [%]
C[C@]12CCC(=O)C=C1CC[C@@H]1[C@@H]2[C@@H](O)C[C@@]2(C)[C@H]1CC[C@]2(O)C(=O)CO [Hydrocortisone],190.3 ± 29.7,3.3,–
"CCN(CC)C(=O)CCC(=O)OCC(=O)[C@@]1(O)CC[C@H]2[C@@H]3CCC4=CC(=O)CC[C@]4(C)[C@H]3[C@@H](O)C[C@@]21C [4-Pregnene-11β,17α-dihydroxy-21-(N,N-diethylsuccinamyloxy)-3,20-dione]",–,49.2,26.7
CC1(C)O[C@@H]2C[C@H]3[C@@H]4CCC5=CC(=O)C=C[C@]5(C)[C@@]4(F)[C@@H](O)C[C@]3(C)[C@]2(C(=O)CO)O1 [Triamcinolone acetonide],65.3 ± 8.1,53.8,45.8
"CCCC(=O)O[C@]1(C(=O)COC(=O)CCC(=O)N(CC)CC)CC[C@H]2[C@@H]3CCC4=CC(=O)CC[C@]4(C)[C@H]3[C@@H](O)C[C@@]21C [4-Pregnene-11β-Hydroxy-17α-butyryloxy-21-(N,N-diethylsuccinamyloxy)-3,20-dione]",–,20.4,–
CC(=O)OCC(=O)[C@@]1(O)CC[C@H]2[C@@H]3CCC4=CC(=O)CC[C@]4(C)[C@H]3[C@@H](O)C[C@@]21C [Hydrocortisone 21-acetate],177.2 ± 11.0,31.0,37.5
CCCC(=O)O[C@]1(C(=O)CO)CC[C@H]2[C@@H]3CCC4=CC(=O)CC[C@]4(C)[C@H]3[C@@H](O)C[C@@]21C [Hydrocortisone 17-butyrate],149.6 ± 11.7,28.9,39.2
"C[C@]12CCC(=O)C=C1CC[C@@H]1[C@@H]2[C@@H](O)C[C@@]2(C)[C@H]1CC[C@]2(O)C(=O)COC(=O)[C@@H]1CCC(=O)N1 [4-Pregnene-11β,17α-dihydroxy-21-(2'-oxopyrrolidin-5'-yl)carbonyloxy-3,20-dione]",–,50.5,–
